Results from article PMC6792352, “Limited Chemical Structural Diversity Found to Modulate Thyroid Hormone Receptor in the Tox21 Chemical Library” (Environmental Health Perspectives, 2019).
Structures can show the parent of a compound that is named as a salt.

assay: in vitro; settings: rat, gh3-tre-luc cells, AC50 (uM) modified / 1000

Compared with `CCCCC(=O)O[C@H]1CC[C@H]2[C@@H]3CCc4cc(O)ccc4[C@H]3CC[C@]12C` [Estradiol valerate], `CCC(=O)O[C@H]1CC[C@H]2[C@@H]3CCc4cc(O)ccc4[C@H]3CC[C@]12C` [beta-Estradiol 17-propionate] is 1.5-fold lower in CC50 at 24 h: 41.5 µM for the first, 26.8 µM for the second.

`Oc1nc(Cl)c(Cl)cc1Cl` [3,5,6-Trichloro-2-pyridinol] and `O=C(O)c1cc2ccccc2cc1O` [3-Hydroxy-2-naphthoic acid] cannot be ordered by CC50 at 24 h: > 90 µM for the first, > 90 µM for the second.

`COC(=O)CC(C(C)=O)C(=O)OC` (stereo not shown) [Dimethyl acetylsuccinate] and `C[N+](C)(C)CC(=O)O` [Betaine monohydrate] cannot be ordered by CC50 at 24 h: > 90 µM for the first, > 90 µM for the second.

`C=CCN1CCCC1CNC(=O)c1cc(S(N)(=O)=O)cc(OC)c1OC` (stereo not shown) [Veralipride] and `COc1cc(N)c(Cl)cc1C(=O)NC1CCN(Cc2ccccc2)CC1` [Clebopride maleate] cannot be ordered by CC50 at 24 h: > 50 µM for the first, > 20 µM for the second.

`Cc1cccc(C(C)(C)C)c1O` [2-tert-Butyl-6-methylphenol] and `Cc1ccc(C)c(S(=O)(=O)O)c1` [2,5-Dimethylbenzenesulfonic acid] cannot be ordered by CC50 at 24 h: > 90 µM for the first, > 80 µM for the second.

Going from `CC(=O)Oc1cc(C)c(OC(C)=O)c2ccccc12` [Acetomenaphthone] to `CC(C)C(=O)c1ccccc1` [Isopropyl phenyl ketone], the CC50 at 24 h rises from 19.7 µM to > 90 µM.

`COc1ccc(C(=O)/N=c2\[nH]c3ccccc3c(NCc3ccccc3)c2C#N)cc1` [SSR161421] and `O=C(/C=C/c1ccccc1)OCCCc1ccccc1` [3-Phenylpropyl cinnamate] cannot be ordered by CC50 at 24 h: > 90 µM for the first, > 90 µM for the second.

`CCCCCCCCCCCCSC` [1-(Methylsulfanyl)dodecane] and `CCCCCCCCCCCC(=O)OC` [Methyl dodecanoate] cannot be ordered by CC50 at 24 h: > 90 µM for the first, > 90 µM for the second.

`C[C@H](CN1CCCC1)C(=O)c1ccc(C(F)(F)F)cc1` [Lanperisone hydrochloride] and `Cc1ccc(C(=O)O)cc1` [4-Methylbenzoic acid] cannot be ordered by CC50 at 24 h: > 50 µM for the first, > 90 µM for the second.

`C[C@]12CCC(=O)C=C1CC[C@@H]1[C@@H]2[C@@H](O)C[C@@]2(C)[C@H]1CC[C@]2(O)C(=O)COC(=O)CCC(=O)O` [Hydrocortisone 21-hemisuccinate sodium salt] and `CC(=O)OCC(=O)[C@@]1(O)CC[C@H]2[C@@H]3C[C@H](C)C4=CC(=O)C=C[C@]4(C)[C@H]3[C@@H](O)C[C@@]21C` [Methylprednisolone acetate] cannot be ordered by CC50 at 24 h: > 50 µM for the first, > 50 µM for the second.

`O=C1CC[C@H](C(=O)N2CCCCC2)N1` [Fasoracetam] and `NC[C@H]1CC[C@H](C(=O)Oc2ccc(CCC(=O)O)cc2)CC1` [Cetraxate hydrochloride] cannot be ordered by CC50 at 24 h: > 50 µM for the first, > 50 µM for the second.

`NCCCCCC(=O)O` [6-Aminocaproic acid] and `CCCCCCOC(=O)c1ccccc1` [Hexyl benzoate] cannot be ordered by CC50 at 24 h: > 20 µM for the first, > 90 µM for the second.

First: CN1CCC(=C2c3ccccc3CCc3cccnc32)CC1 [Azatadine]
Second: O=C(CCCN1CCN(c2ccccn2)CC1)c1ccc(F)cc1 [Azaperone]
The CC50 at 24 h of the first is lower: 47.7 µM for the first, > 50 µM for the second.

Compared with `Cc1cc(Br)ccc1NC(=O)CCl` [2-Chloro-N-(2-methyl-4-bromophenyl)acetamide], `Cc1cc(C(=O)O)ccc1[N+](=O)[O-]` [3-Methyl-4-nitrobenzoic acid] is higher in CC50 at 24 h: 22.1 µM for the first, > 90 µM for the second.

`CCOc1ccc(C(=O)OCCN(CC)CC)cc1` [Parethoxycaine] and `CCCN(CCC)S(=O)(=O)c1ccc(C(=O)O)cc1` [Probenecid] cannot be ordered by CC50 at 24 h: > 50 µM for the first, > 90 µM for the second.

`Cc1ncc([C@@H](CCCCCCc2ccc3c(n2)NCCC3)CC(=O)O)cn1` [PharmaGSID_47333] and `Cc1ccc2c(n1)Oc1ccc(C(C)C(=O)OCC(=O)N(C)C)cc1C2` (stereo not shown) [Mepranoprofen arbamel] cannot be ordered by CC50 at 24 h: > 90 µM for the first, > 50 µM for the second.

`Clc1ccc2nsnc2c1NC1=NCCN1` [Tizanidine] and `c1ccc(C2CC2)c(OCC2=NCCN2)c1` [Cirazoline] cannot be ordered by CC50 at 24 h: > 50 µM for the first, > 50 µM for the second.

Compared with `NC(=O)C(=O)N/N=C/c1ccc([N+](=O)[O-])o1` [Nifuraldezone], `Nc1ccc([N+](=O)[O-])cc1O` [2-Amino-5-nitrophenol] is 3.3-fold higher in CC50 at 24 h: 24.8 µM for the first, 82.7 µM for the second.

`CC(c1ccc(O)cc1)c1ccc(O)cc1` [Bisphenol E] and `CCOc1ccc(/N=C(\C)Nc2ccc(OCC)cc2)cc1` [Phenacaine] cannot be ordered by CC50 at 24 h: > 90 µM for the first, > 50 µM for the second.

Going from `CCCCc1nc2cccnc2n1Cc1ccc(-c2ccccc2-c2nnn[nH]2)cc1` [FR130739] to `Nc1ccc(S(=O)(=O)Nc2cnc3ccccc3n2)cc1` [Sulfaquinoxaline], the CC50 at 24 h rises from 55.3 µM to > 90 µM.

`CN(C)CCOCCN(C)CCO` [2-[{2-[2-(Dimethylamino)ethoxy]ethyl}(methyl)amino]ethanol] and `NCCOCCO` [2-(2-Aminoethoxy)ethanol] cannot be ordered by CC50 at 24 h: > 90 µM for the first, > 90 µM for the second.

`O=C(O)CCC(=O)Nc1ccc(S(=O)(=O)Nc2nccs2)cc1` [Succinylsulfathiazole] and `C=Cc1ccc(S(=O)(=O)O)cc1` [Sodium 4-vinylbenzenesulfonate] cannot be ordered by CC50 at 24 h: > 20 µM for the first, 31.8 µM for the second.

First: CCCCCCCCCCCCCCCC[N+](C)(C)C [Hexadecyl trimethyl ammonium chloride]
Second: CCCCCCCCCCCCCCCCI [1-iodohexadecane]
The CC50 at 24 h of the first is lower: 12.8 µM for the first, > 20 µM for the second.

`COc1ccc2nc(N)sc2c1` [2-Amino-6-methoxybenzothiazole] and `Nc1nc2ccccc2[nH]1` [2-Aminobenzimidazole] cannot be ordered by CC50 at 24 h: > 90 µM for the first, > 90 µM for the second.

`Cn1nnc2c(C(N)=O)ncn2c1=O` [Temozolomide] and `Cn1nnnc1SCC1=C(C(=O)O)N2C(=O)[C@@H](NC(=O)[C@H](OC=O)c3ccccc3)[C@H]2SC1` [Cefamandole nafate] cannot be ordered by CC50 at 24 h: > 50 µM for the first, > 50 µM for the second.

`O=C(O)c1ccccc1-c1c2ccc(=O)cc-2oc2cc(O)ccc12` [Fluorescein sodium] and `O=C(O)c1cc(-c2ccc(F)cc2F)ccc1O` [Diflunisal] cannot be ordered by CC50 at 24 h: > 50 µM for the first, > 20 µM for the second.

`CCN(C(=O)c1cc(C)cc(OC[C@H](C)Nc2ccncc2)c1)C(C)C` [GW473178E methyl benzene sulphonic acid] and `CC(C)c1c(CN(C)C(C)Cc2ccccc2)n(C)n(-c2ccccc2)c1=O` (stereo not shown) [Famprofazone] cannot be ordered by CC50 at 24 h: > 60 µM for the first, > 20 µM for the second.

`COC(=O)[C@H]1[C@H]2C[C@@H]3c4[nH]c5cc(OC)ccc5c4CCN3C[C@H]2C[C@H](OC)[C@@H]1OC` [Metoserpate hydrochloride] and `CNC(=O)Oc1ccc2c(c1)[C@]1(C)CCN(C)[C@@H]1N2C` [Physostigmine] cannot be ordered by CC50 at 24 h: > 50 µM for the first, > 90 µM for the second.

`O=C(O)/C=C/c1ccc(Cn2ccnc2)cc1` [Ozagrel hydrochloride] and `CCN(Cc1ccc(Cl)nc1)/C(=C/[N+](=O)[O-])NC` [(E)-Nitenpyram] cannot be ordered by CC50 at 24 h: > 20 µM for the first, > 50 µM for the second.

`CC1=CC(=O)[C@H]2C[C@@H]1C2(C)C` [L-Verbenone] and `CC1(C)C(=O)N(Cl)C(=O)N1Cl` [1,3-Dichloro-5,5-dimethylhydantoin] cannot be ordered by CC50 at 24 h: > 90 µM for the first, > 90 µM for the second.

`C[N+]1([O-])CCOCC1` [4-Methylmorpholine 4-oxide] and `Cc1ccccc1CO[C@@H]1C[C@@]2(C(C)C)CC[C@]1(C)O2` (racemic) [Cinmethylin] cannot be ordered by CC50 at 24 h: > 90 µM for the first, > 90 µM for the second.

Compared with `CCC(O)c1ccccc1` (stereo not shown) [1-Phenyl-1-propanol], `CC(NCCC(c1ccccc1)c1ccccc1)c1ccccc1` (stereo not shown) [Fendiline hydrochloride] is lower in CC50 at 24 h: > 50 µM for the first, 6.49 µM for the second.

`CCC(C)NC(N)=O` (stereo not shown) [sec-Butylurea] and `CCCC(=O)OCC` [Ethyl butyrate] cannot be ordered by CC50 at 24 h: > 90 µM for the first, > 90 µM for the second.

`CC(C)OC=O` [Isopropyl formate] and `COc1nc(C)nc(N)n1` [2-Methyl-4-amino-6-methoxy-s-triazine] cannot be ordered by CC50 at 24 h: > 100 µM for the first, > 90 µM for the second.

`NC(=O)c1cccnc1` [Niacinamide] and `CC(=O)c1cccnc1` [3-Acetylpyridine] cannot be ordered by CC50 at 24 h: > 90 µM for the first, > 90 µM for the second.

Compared with `COc1cc(-c2ccc(=O)[nH]n2)ccc1OC(F)F` [Zardaverine], `COc1ccc(CCN(C)CCCC(C#N)(c2ccc(OC)c(OC)c2)C(C)C)cc1OC` (stereo not shown) [Verapamil hydrochloride] is lower in CC50 at 24 h: > 50 µM for the first, 24.5 µM for the second.

`CCCCC(CC)COP(=O)(O)OCC(CC)CCCC` (stereo not shown) [Bis(2-ethylhexyl) phosphate] and `O=S(=O)(O)CCCS(=O)(=O)O` [Disodium propane-1,3-disulfonate] cannot be ordered by CC50 at 24 h: 63.4 µM for the first, > 50 µM for the second.

`c1coc(-c2nc3ccccc3[nH]2)c1` [Fuberidazole] and `CC(C)(C)c1n[nH]c(=S)n(N)c1=O` [4-Amino-6-tert-butyl-3-thioxo-3,4-dihydro-1,2,4-triazin-5(2H)-one] cannot be ordered by CC50 at 24 h: > 90 µM for the first, > 90 µM for the second.

`FC(F)(F)C(F)(F)C(F)(F)C(F)(F)C(F)(F)F` [Perflenapent] and `ClC1C(Cl)C(Cl)C(Cl)C(Cl)C1Cl` (stereo not drawn) [alpha-1,2,3,4,5,6-Hexachlorocyclohexane] cannot be ordered by CC50 at 24 h: > 50 µM for the first, > 90 µM for the second.

same assay, conditions: rat, gh3-tre-luc cells, AC50 (uM) modified / 1000, Tox21_110001=Tox21_110399; viability, 1 nM T3 present, 24 h

With `OC(c1ccccc1)(c1ccccc1)C1CCNCC1` [Azacyclonol] the CC50 at 24 h was > 20 µM.

same assay, conditions: rat, gh3-tre-luc cells, AC50 (uM) modified / 1000, Tox21_110001=Tox21_111120; viability, 1 nM T3 present, 24 h

With `ClC1=C(Cl)[C@]2(Cl)[C@@H]3[C@H]4C[C@H]([C@@H]5O[C@H]45)[C@@H]3[C@@]1(Cl)C2(Cl)Cl` [Endrin] the CC50 at 24 h was 34.4 µM.

same assay, conditions: rat, gh3-tre-luc cells, AC50 (uM) modified / 1000, Tox21_110001=Tox21_111614; viability, 1 nM T3 present, 24 h

For `OC(O)C(Cl)(Cl)Cl` [Chloral hydrate], the CC50 at 24 h was > 50 µM.

same assay, conditions: rat, gh3-tre-luc cells, AC50 (uM) modified / 1000, Tox21_110001=Tox21_200110; viability, 1 nM T3 present, 24 h

For `OC(O)C(Cl)(Cl)Cl` [Chloral hydrate], the CC50 at 24 h was > 90 µM.

same assay, conditions: rat, gh3-tre-luc cells, AC50 (uM) modified / 1000, Tox21_110001=Tox21_201828; viability, 1 nM T3 present, 24 h

With `Sc1nc2ccccc2[nH]1` [2-Mercaptobenzimidazole] the CC50 at 24 h was > 90 µM.

same assay, conditions: rat, gh3-tre-luc cells, AC50 (uM) modified / 1000, Tox21_110001=Tox21_300613; viability, 1 nM T3 present, 24 h

In the case of `ClC1=C(Cl)[C@]2(Cl)[C@@H]3[C@H]4C[C@H]([C@@H]5O[C@H]45)[C@@H]3[C@@]1(Cl)C2(Cl)Cl` [Endrin], the CC50 at 24 h is reported as > 90 µM.

same assay, conditions: rat, gh3-tre-luc cells, AC50 (uM) modified / 1000, Tox21_110001=Tox21_301256; viability, 1 nM T3 present, 24 h

In the case of `CC(=O)c1cc2c(cc1C)C(C)(C)C(C)CC2(C)C` (stereo not shown) [6-Acetyl-1,1,2,4,4,7-hexamethyltetralin], the CC50 at 24 h is reported as 45.6 µM.
